We go through 31 compounds from ChEMBL document CHEMBL5150062, “Computational design, synthesis and biological evaluation of PDE5 inhibitors based on N2,N4-diaminoquinazoline and N2,N6-diaminopurine scaffolds” (Bioorg Med Chem, 2022).

Converted amounts (≈) assume the structure as drawn.

Data set [1] has as its target T1, cGMP-specific 3',5'-cyclic phosphodiesterase (Homo sapiens, UniProt O76074). Nature of the data set: Inhibition of human PDE5 using [3H]cGMP as substrate at 1 uM incubated for 10 mins by liquid scintillation counter analysis relative to control.
In data set [2] the target is T1, cGMP-specific 3',5'-cyclic phosphodiesterase. The experiment in a line: Inhibition of human PDE5 using [3H]cGMP as substrate incubated for 10 mins by liquid scintillation counter analysis.
Data set [3] can be described thus: Selectivity index, ratio of IC50 for inhibition of bovine heart PDE1to IC50 for inhibition of human PDE5.
The species named for a further data set is Bos taurus. The experiment in a line: Inhibition of bovine heart PDE1 using [3H]cGMP as substrate at 10 uM incubated for 10 mins by liquid scintillation counter analysis relative to control.
Data set [4] in a line: Aqueous solubility of the compound in pH 7.4 PBS measured after 7 hrs by HPLC-UV analysis. It counts as physicochemical. Particulars: for solubility at 7 h: PBS, pH 7.4.
Data set [5] is described as follows: Inhibition of bovine heart PDE1 using [3H]cGMP as substrate incubated for 10 mins by liquid scintillation counter analysis. Set-up: species or system Bos taurus.
A short description of data set [6]: 1-Octanol/PBS partition coefficient, logD of the compound at pH 7.4 incubated for 7 hrs by shake flask technique based HPLC-UV analysis. It is filed as physicochemical.

For the compound `Cn1cnc2c(NCc3ccccc3)nc(Nc3cccc(S(N)(=O)=O)c3)nc21`, in data set [1], the inhibition (as a rule, the change of the read-out against control, counted positive when it falls) came out at 86.1%. Further, half-maximal inhibition in data set [2] (IC50) required 4460 nM.

For `CN1CCN(S(=O)(=O)c2cccc(Nc3nc(NCc4ccccc4)c4nc[nH]c4n3)c2)CC1`, the inhibition in data set [1] was 99.3%. Besides, the IC50 (in general, the point on the concentration scale where inhibition reaches its midpoint) in data set [2] was determined as 2020 nM.

Consider `NS(=O)(=O)c1cccc(Nc2nc(NCc3ccccc3)c3ccccc3n2)c1`, for which the Ratio IC50 in data set [3] amounted to 100. For the same compound, the values for the inhibition (in data set [1]; in the data set listed under Bos taurus) were 101% and 73.9%, respectively. The IC50 in data set [2] turned out to be 100 nM; in data set [5], 11800 nM. Also, in data set [4], the solubility (commonly the concentration that dissolves in the medium under given conditions) at 7 h was determined as 2.1 µg/mL (≈ 5.18 µM). The pH-dependent lipophilicity (logD) (usually lipophilicity at a set pH, counting ionised and neutral species) at 7 h in data set [6] came out at 3.87.

For `CC(C)CNc1nc(Nc2cccc(S(=O)(=O)N3CCN(C)CC3)c2)nc2ccccc12`, the inhibition in data set [1] is 97.3%; in the data set listed under Bos taurus, 67.2%. The compound further registered an IC50 in data set [2] of 430 nM. Also, in data set [4], the solubility at 7 h was found to be 0.6 µg/mL (≈ 1.32 µM). The compound further showed a logD at 7 h in data set [6] of 3.55.

In the case of `CCCNc1nc(Nc2ccc(S(=O)(=O)N3CCN(C)CC3)cc2)nc2ccccc12`, the inhibition in data set [1] worked out at 95.6%; in the data set listed under Bos taurus, 46.8%. Inhibition in data set [2] was half-maximal at 410 nM (IC50). Further, the solubility at 7 h in data set [4] is 0.1 µg/mL (≈ 0.227 µM). Besides, in data set [6], the log distribution coefficient (logD) at 7 h was found to be 3.92.

In the case of `CC(C)CNc1nc(Nc2ccc(S(=O)(=O)N3CCN(C)CC3)cc2)nc2ccccc12`, the inhibition in data set [1] amounted to 99%; in the data set filed under Bos taurus it was 44.8%. The same compound came in with an IC50 in data set [2] of 360 nM. Besides, in data set [4], the solubility at 7 h amounted to 3 µg/mL (≈ 6.6 µM). Further, the log distribution coefficient (logD) at 7 h in data set [6] turned out to be 3.68.

In the case of `CC(C)N1CCC(Nc2nc(Nc3cccc(S(N)(=O)=O)c3)nc3ccccc23)CC1`, in data set [1], the inhibition was found to be 96.3%. In data set [2], this compound gave an IC50 of 1030 nM.

As to `CCCNc1nc(Nc2cccc(S(=O)(=O)N3CCN(C)CC3)c2)nc2c1ncn2C`, the inhibition in data set [1] amounted to 93.6%. In data set [2], it took 43200 nM to reach half-maximal inhibition (IC50).

As to `CC(C)N1CCC(Nc2nc(Nc3cccc(S(N)(=O)=O)c3)nc3[nH]cnc23)CC1`, the inhibition in data set [1] amounted to 32.7%.

For `CN(C)CCNc1nc(Nc2cccc(S(N)(=O)=O)c2)nc2ccccc12`, in data set [1], the inhibition was 72.2%. In data set [2], this compound returned an IC50 of 9390 nM.

With `CN1CCN(S(=O)(=O)c2cccc(Nc3nc(NCc4ccccc4)c4ccccc4n3)c2)CC1`, in data set [1], the inhibition amounted to 98.3%. In addition, the IC50 in data set [2] is 500 nM.

`CC(C)CNc1nc(Nc2ccc(S(=O)(=O)N3CCN(C)CC3)cc2)nc2c1ncn2C`: the inhibition in data set [1] worked out at 96%. Also, inhibition in data set [2] was half-maximal at 28500 nM (IC50).

`CN1CCN(S(=O)(=O)c2cccc(Nc3nc(NCc4cccs4)c4ccccc4n3)c2)CC1`: in data set [1], the inhibition is 93.9%. In addition, in data set [2], it took 520 nM to reach half-maximal inhibition (IC50).

With `COc1cc2nc(Nc3ccc(S(N)(=O)=O)cc3)nc(NCC(C)C)c2cc1OC`, the inhibition in data set [1] is 94.6%. In data set [2], this compound had an IC50 of 3970 nM.

For the compound `CCCc1nn(C)c2c(=O)[nH]c(-c3cc(S(=O)(=O)N4CCN(C)CC4)ccc3OCC)nc12`, in data set [4] (buffer, pH 7.4, 7 h), the solubility amounted to 180 µg/mL (≈ 379 µM). In addition, in data set [6], the pH-dependent lipophilicity (logD) at 7 h was 2.69.

As for `CN1CCN(S(=O)(=O)c2cccc(Nc3nc(NCc4ccccc4)c4ncn(C)c4n3)c2)CC1`, in data set [1], the inhibition was found to be 69%.

With `COc1cc2nc(Nc3cccc(S(N)(=O)=O)c3)nc(NCC(C)C)c2cc1OC`, the inhibition in data set [1] was determined as 94.9%. The compound further returned an IC50 in data set [2] of 5230 nM.

`CC(C)N1CCC(Nc2nc(Nc3cccc(S(=O)(=O)N4CCN(C)CC4)c3)nc3ccccc23)CC1`: the inhibition worked out at 93.6% in data set [1] and 28.2% in the data set filed under Bos taurus. Also, 150 nM corresponded to half-maximal inhibition in data set [2] (IC50). The compound further registered a solubility at 7 h in data set [4] of 1770 µg/mL (≈ 3380 µM). In data set [6], this compound showed a logD at 7 h of 2.15.

As to `NS(=O)(=O)c1cccc(Nc2nc(NC3CCN(Cc4ccccc4)CC3)c3ccccc3n2)c1`, the values for the inhibition (in data set [1]; in the data set listed under Bos taurus) were 93.4% and 61.7%, respectively. In data set [2], this compound yielded a concentration for half-maximal inhibition (IC50) of 220 nM. The amount in solution in data set [4] (solubility at 7 h) came to 4.2 µg/mL (≈ 8.6 µM). The logD at 7 h in data set [6] came out at 3.37.

For the compound `NS(=O)(=O)c1cccc(Nc2nc(NC3CCN(Cc4ccccc4)CC3)c3nc[nH]c3n2)c1`, the inhibition in data set [1] turned out to be 94.3%; in the data set listed under Bos taurus, 31.2%. This compound gave an IC50 in data set [2] of 290 nM. The solubility at 7 h in data set [4] came to 150 µg/mL (≈ 313 µM). In data set [6], this compound came in with a logD at 7 h of 2.16.

As for `CCCNc1nc(Nc2cccc(S(N)(=O)=O)c2)nc2cc(OC)c(OC)cc12`, the inhibition in data set [1] stood at 91.6%. The half-inhibitory concentration (IC50) in data set [2] stood at 1440 nM.

Take `COc1cc2nc(Nc3cccc(S(N)(=O)=O)c3)nc(NC3CCN(C(C)C)CC3)c2cc1OC`: the inhibition in data set [1] came out at 79.3%. In data set [2], inhibition was half-maximal at 3410 nM (IC50).

As for `CCCNc1nc(Nc2ccc(S(=O)(=O)N3CCN(C)CC3)cc2)nc2c1ncn2C`, in data set [1], the inhibition turned out to be 93.6%. In addition, the IC50 in data set [2] is 18900 nM.

In the case of `COc1cc2nc(Nc3cccc(S(N)(=O)=O)c3)nc(NC3CCN(Cc4ccccc4)CC3)c2cc1OC`, the inhibition in data set [1] is 93.7%. 1640 nM corresponded to half-maximal inhibition in data set [2] (IC50).

Consider `CCCNc1nc(Nc2cccc(S(=O)(=O)N3CCN(C)CC3)c2)nc2ccccc12`, for which the inhibition in data set [1] was determined as 96.9%. Also, the 50% inhibitory concentration (IC50) in data set [2] was determined as 600 nM.

As for `CN(C)CCNc1nc(Nc2cccc(S(=O)(=O)N3CCN(C)CC3)c2)nc2ccccc12`, the inhibition in data set [1] was 75.3%. This compound also returned a half-inhibitory concentration (IC50) in data set [2] of 5280 nM.

On to `CN1CCN(S(=O)(=O)c2ccc(Nc3nc(NCc4ccccc4)c4ncn(C)c4n3)cc2)CC1`, for which the inhibition in data set [1] was determined as 97.3%. Moreover, in data set [2], the IC50 was 38400 nM.

As for `Cn1cnc2c(NCc3ccccc3)nc(Nc3ccc(S(N)(=O)=O)cc3)nc21`, the inhibition in data set [1] is 96.5%. Moreover, in data set [2], the IC50 amounted to 23000 nM.

For `COc1cc2nc(Nc3cccc(S(=O)(=O)N4CCN(C)CC4)c3)nc(NC3CCN(C(C)C)CC3)c2cc1OC`, the inhibition in data set [1] is 18.5%.

Take `CC(C)CNc1nc(Nc2cccc(S(=O)(=O)N3CCN(C)CC3)c2)nc2c1ncn2C`: the inhibition in data set [1] was determined as 91.8%. Further, the IC50 in data set [2] amounted to 33300 nM.

With `CN1CCN(S(=O)(=O)c2ccc(Nc3nc(NCc4ccccc4)c4ccccc4n3)cc2)CC1`, in data set [1], the inhibition came to 96.5%. In data set [2], this compound gave an IC50 of 490 nM.
